Source: ChEMBL document CHEMBL6182909 (J Med Chem, 2025)

Tests used:
[1] = molecular target: T1, 5-hydroxytryptamine receptor 2B (Homo sapiens, UniProt P41595); test: Displacement of [125I]-DOI from 5-HT2B receptor (unknown origin) expressed in HEK293 cell membrane incubated for 1 hr by scintillation counter analysis; assay type: cell membranes
[2] = molecular target: T1, 5-hydroxytryptamine receptor 2B; test: Displacement of [125I]-DOI from 5-HT2B receptor (unknown origin) expressed in HEK293 cell membrane assessed as inhibition constant incubated for 1 hr by scintillation counter analysis; assay type: cell membranes
[3] = molecular target: T2, 5-hydroxytryptamine receptor 2A (Homo sapiens, UniProt P28223); test: Displacement of [125I]-DOI from 5-HT2A receptor (unknown origin) expressed in HEK293 cell membrane incubated for 1 hr by scintillation counter analysis; assay type: cell membranes
[4] = molecular target: T2, 5-hydroxytryptamine receptor 2A; test: Displacement of [125I]-DOI from 5-HT2A receptor (unknown origin) expressed in HEK293 cell membrane assessed as inhibition constant incubated for 1 hr by scintillation counter analysis; assay type: cell membranes
[5] = molecular target: T3, 5-hydroxytryptamine receptor 2C (Homo sapiens, UniProt P28335)
T3 sequence (P28335 whole entry): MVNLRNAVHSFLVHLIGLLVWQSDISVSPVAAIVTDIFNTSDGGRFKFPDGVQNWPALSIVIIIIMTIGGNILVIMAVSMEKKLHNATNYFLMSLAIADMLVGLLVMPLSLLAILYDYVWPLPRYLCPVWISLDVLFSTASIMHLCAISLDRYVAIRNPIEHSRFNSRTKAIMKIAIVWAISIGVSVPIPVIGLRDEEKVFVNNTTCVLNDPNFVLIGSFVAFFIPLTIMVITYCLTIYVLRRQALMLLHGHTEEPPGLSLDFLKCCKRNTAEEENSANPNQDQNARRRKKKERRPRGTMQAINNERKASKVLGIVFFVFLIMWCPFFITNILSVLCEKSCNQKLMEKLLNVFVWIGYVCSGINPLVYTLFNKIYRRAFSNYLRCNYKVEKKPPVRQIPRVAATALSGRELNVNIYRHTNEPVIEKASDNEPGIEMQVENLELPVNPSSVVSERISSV

[6] = molecular target: T3, 5-hydroxytryptamine receptor 2C; remark: listed apart in the source
Rattus norvegicus [7] = test: Hypophagic effect in fasted male Sprague-Dawley rat assessed as inhibition of food intake at 10 mg/kg, po measured after 1 hr relative to control; assay type: functional; conditions: for inhibition in vivo at 10 mg/kg: Rattus norvegicus, Sprague-Dawley, po; for inhibition (INH): 10 mg/kg
[8] = Drug concentration in plasma of fasted male Sprague-Dawley rat assessed as inhibition of food intake at 10 mg/kg, po measured after 1 hr relative to control; assay type: organism-based
[9] = Drug concentration in brain of fasted male Sprague-Dawley rat assessed as inhibition of food intake at 10 mg/kg, po measured after 1 hr relative to control; assay type: organism-based; conditions: read-out: Ct
Rattus norvegicus [10] = test: Hypophagic effect in fasted male Sprague-Dawley rat assessed as inhibition of food intake at 5 mg/kg, po measured after 1 hr relative to control; assay type: functional
Rattus norvegicus [11] = test: Hypophagic effect in fasted male Sprague-Dawley rat assessed as effective dose administered orally measured after 1 hr relative to control; assay type: functional; conditions: route po

T1 sequence (P41595 whole entry): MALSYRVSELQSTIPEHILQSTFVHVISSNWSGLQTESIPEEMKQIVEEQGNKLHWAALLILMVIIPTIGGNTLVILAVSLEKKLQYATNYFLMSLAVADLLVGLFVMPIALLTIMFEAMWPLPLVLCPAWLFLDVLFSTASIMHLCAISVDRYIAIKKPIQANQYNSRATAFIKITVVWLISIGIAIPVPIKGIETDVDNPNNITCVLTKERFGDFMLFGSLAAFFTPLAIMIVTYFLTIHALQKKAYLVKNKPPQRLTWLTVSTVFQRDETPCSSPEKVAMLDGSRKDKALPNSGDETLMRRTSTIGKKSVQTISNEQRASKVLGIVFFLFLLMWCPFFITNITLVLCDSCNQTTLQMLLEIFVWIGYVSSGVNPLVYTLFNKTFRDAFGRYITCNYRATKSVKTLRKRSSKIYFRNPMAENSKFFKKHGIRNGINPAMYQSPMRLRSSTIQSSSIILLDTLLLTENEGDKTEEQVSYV
T2 sequence (P28223 whole entry): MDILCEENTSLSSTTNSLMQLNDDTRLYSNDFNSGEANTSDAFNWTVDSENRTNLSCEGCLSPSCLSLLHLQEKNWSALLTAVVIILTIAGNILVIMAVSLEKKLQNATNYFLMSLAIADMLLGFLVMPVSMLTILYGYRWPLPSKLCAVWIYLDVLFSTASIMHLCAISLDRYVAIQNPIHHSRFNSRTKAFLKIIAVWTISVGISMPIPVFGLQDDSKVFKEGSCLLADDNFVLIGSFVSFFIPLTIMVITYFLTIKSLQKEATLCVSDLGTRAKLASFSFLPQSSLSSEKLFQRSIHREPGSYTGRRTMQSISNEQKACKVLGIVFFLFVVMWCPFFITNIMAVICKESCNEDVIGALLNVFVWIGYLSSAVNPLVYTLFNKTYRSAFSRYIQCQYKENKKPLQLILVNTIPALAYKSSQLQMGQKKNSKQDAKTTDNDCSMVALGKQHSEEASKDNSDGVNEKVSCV

Row | Compound | EC50 [1] [µM] | Ki [2] [µM] | EC50 [3] [µM] | Ki [4] [µM] | EC50 [5] [µM] | Ki [6] [µM] | concentration at 1 h [8] [µg/mL] | concentration at 1 h [9] [ng/g] | inhibition in vivo at 10 mg/kg (Rattus norvegicus [7]) [%] | inhibition (INH) (Rattus norvegicus [7]) [%] | inhibition in vivo at 5 mg/kg (Rattus norvegicus [10]) [%] | ED50 (Rattus norvegicus [11]) [mg/kg]
1 | O=C(NCC1CC1)c1ccc2c3c1CCN3CCNC2 | > 50 | 17.8 | > 50 | 17.8 | 0.36 | 0.32 |  |  |  |  |  | 
2 | CS(=O)(=O)CCNC(=O)c1ccc2c3c1CCN3CCNC2 | > 50 | > 50 | > 50 | > 30 | > 50 | 12.6 |  |  |  |  |  | 
3 | CNC(=O)c1ccc2c3c1CCCN3CCNC2 | > 50 |  | > 50 |  | 5.6 |  |  |  |  |  |  | 
4 | CCCNC(=O)c1ccc2c3c1C(CC(F)(F)F)CN3CCNC2 (single isomer, unassigned; (+)) |  |  |  |  |  |  |  |  | 53 |  |  | 
5 | CNC(=O)c1ccc2c3c1C(CC(F)(F)F)CN3CCNC2 (single isomer, unassigned; (+)) |  |  |  |  |  |  | 1.66 | 440 |  | 83 | 41 | 5.2
6 | CNC(=O)c1ccc2c3c1C(CC(F)(F)F)CN3CCNC2 (single isomer, unassigned; (-)) |  |  |  |  |  |  |  |  |  | 0 |  | 
7 | O=C(NC1CC1)c1ccc2c3c1CCN3CCNC2 | > 50 | 9.65 | > 50 | 21.8 | 0.4 | 0.38 |  |  |  |  |  | 
8 | CC(C)NC(=O)c1ccc2c3c1CCN3CCNC2 | > 50 | 8.76 | > 50 | > 30 | 3.92 | 1.15 |  |  |  |  |  | 
9 | CCC1CN2CCNCc3ccc(C(=O)NC)c1c32 (single isomer, unassigned; (+)) |  |  |  |  |  |  | 1.01 | 222 |  | 63 |  | 6.4
10 | O=C(NCCF)c1ccc2c3c1CCN3CCNC2 | > 50 | > 50 | > 50 | > 30 | 0.43 | 0.249 |  |  |  |  |  | 
11 | O=C(NCC(F)F)c1ccc2c3c1CCN3CCNC2 | > 50 |  | > 50 |  | 0.4 |  |  |  |  |  |  | 
12 | O=C(NCC(F)(F)F)c1ccc2c3c1CCN3CCNC2 | > 50 |  | > 50 |  | > 50 |  |  |  |  |  |  | 
13 | COCC(C)NC(=O)c1ccc2c3c1CCN3CCNC2 (configuration not stated) | > 50 | > 50 | > 50 | > 30 | 7.4 | 3.07 |  |  |  |  |  | 
14 | CCNC(=O)c1ccc2c3c1CCN3CCNC2 | > 50 | 8.16 | > 50 | > 30 | 0.252 | 0.21 |  |  |  |  |  | 
15 | NC(=O)c1ccc2c3c1CCN3CCNC2 | > 50 |  | > 50 |  | 2.7 | 0.5 |  |  |  |  |  | 
16 | CN(C)C(=O)c1ccc2c3c1CCN3CCNC2 | > 50 |  | > 50 |  | > 30 |  |  |  |  |  |  | 
17 | CCC1CN2CCNCc3ccc(C(=O)NC)c1c32 (single isomer, unassigned; (-)) |  |  |  |  |  |  |  |  |  | 0 |  | 
18 | CCC1CN2CCNCc3ccc(C(=O)NCC(F)F)c1c32 (single isomer, unassigned; (+)) |  |  |  |  |  |  | 0.866 | 454 |  |  | 27 | > 5
19 | COCCNC(=O)c1ccc2c3c1CCCN3CCNC2 | > 50 |  | > 50 |  | 0.332 |  |  |  |  |  |  | 
20 | COC(C)CNC(=O)c1ccc2c3c1CCN3CCNC2 (configuration not stated) | > 50 | 7.73 | > 50 | 0.83 | 0.82 | 0.348 |  |  |  |  |  | 

Now from value to compound, other results behind:

Row | EC50 [1] [µM] | Ki [2] [µM] | EC50 [3] [µM] | Ki [4] [µM] | EC50 [5] [µM] | Ki [6] [µM] | concentration at 1 h [8] [µg/mL] | concentration at 1 h [9] [ng/g] | Compound | inhibition in vivo at 10 mg/kg (Rattus norvegicus [7]) [%] | inhibition (INH) (Rattus norvegicus [7]) [%] | inhibition in vivo at 5 mg/kg (Rattus norvegicus [10]) [%] | ED50 (Rattus norvegicus [11]) [mg/kg]
21 | > 50 | > 50 | > 50 | > 30 | 0.057 | 0.075 |  |  | CC(C)OCCNC(=O)c1ccc2c3c1CCN3CCNC2 |  |  |  | 
22 | > 50 | > 50 | > 50 | > 30 | 0.059 | 0.084 |  |  | CSCCNC(=O)c1ccc2c3c1CCN3CCNC2 |  |  |  | 
23 | > 50 | > 50 | > 50 | > 50 | 0.193 | 0.232 |  |  | CCOCCNC(=O)c1ccc2c3c1CCCN3CCNC2 |  |  |  | 
24 | > 50 | 2.49 | > 50 | 18.9 | 0.033 | 0.061 |  |  | O=C(NCCCl)c1ccc2c3c1CCN3CCNC2 |  |  |  | 
25 | > 50 | 15.5 | > 50 | 6.07 | 0.033 | 0.043 |  |  | CCOCCNC(=O)c1ccc2c3c1CCN3CCNC2 | 26 |  |  | 
26 | > 50 | 2.51 | > 50 | 0.506 | 0.015 | 0.019 |  |  | CCCOCCNC(=O)c1ccc2c3c1CCN3CCNC2 |  |  |  | 
27 |  | 12.4 |  | 1.62 | 0.045 | 0.072 |  |  | CCNC(=O)c1ccc2c3c1C(CC(F)(F)F)CN3CCNC2 (racemic) |  |  |  | 
28 |  | 0.804 |  | 3.78 | 0.023 | 0.03 |  |  | CNC(=O)c1ccc2c3c1C(CC(F)F)CN3CCNC2 (racemic) |  |  |  | 
29 |  | > 50 |  | 0.217 | 0.017 | 0.038 |  |  | COCCNC(=O)c1ccc2c3c1C(CC(F)(F)F)CN3CCNC2 (racemic) |  |  |  | 
30 |  | 5.15 |  | 7.33 | 0.178 | 0.091 |  |  | O=C(NCC(F)(F)F)c1ccc2c3c1C(CC(F)(F)F)CN3CCNC2 (racemic) |  |  |  | 
31 | > 50 | 1.67 | > 50 | 2.63 | 0.021 | 0.018 |  |  | O=C(NCCOc1ccccc1)c1ccc2c3c1CCN3CCNC2 |  |  |  | 
32 | > 50 | 11.8 | > 50 | > 30 | 0.091 | 0.16 |  |  | CCCCNC(=O)c1ccc2c3c1CCN3CCNC2 |  |  |  | 
33 | > 50 | > 50 | > 50 | 17.8 | 0.015 | 0.029 |  |  | CCSCCNC(=O)c1ccc2c3c1CCN3CCNC2 |  |  |  | 
34 |  | > 50 |  | 2.68 | 0.014 | 0.025 |  |  | O=C(NCC(F)F)c1ccc2c3c1C(CC(F)(F)F)CN3CCNC2 (racemic) |  |  |  | 
35 |  | > 50 |  | 0.212 | 0.08 | 0.121 |  |  | CCC1CN2CCNCc3ccc(C(=O)NCCF)c1c32 (racemic) |  |  |  | 
